pIC50: −log10 of the molar value. Calls of active or inactive are those of the source. The rule behind the calls is not given here.
Molecular target: methionyl-tRNA synthetase (Trypanosoma brucei brucei)
Assay: inhibition of trypanosomal methionyl-tRNA synthetase – biochemical, fluorescence polarization, dose response, round 1, orthogonal assay for T. brucei MetRS inhibitor project, late-stage follow-up (AID 743154)

| pIC50 | IC50 | SMILES |
| --- | --- | --- |
| 5.75 | – | O=C(Nc1ccc(F)c(Cl)c1)C1CC(=O)n2c(nc3ccccc32)N1 (stereo unspecified) |
| – | > 39.5 µM (inactive) | CCCCn1c(CCNC(=O)c2ccc(F)cc2)nc2ccccc21 |
| – | > 39.5 µM (inactive) | Cn1c(CCNC(=O)c2ccc(Cl)cc2)nc2ccccc21 |
| – | > 39.5 µM (inactive) | CC(=O)c1cn(CC(=O)Nc2cccc(C(F)(F)F)c2)c2ccccc12 |
| 5.45 | – | Cc1ccc(C(=O)NCCc2nc3ccccc3[nH]2)cc1[N+](=O)[O-] |
| – | > 39.5 µM (inactive) | Cc1cc2cc(C(=O)N3CCCC(c4nc5ccccc5[nH]4)C3)ccc2o1 (stereo unspecified) |
| – | > 39.5 µM (inactive) | Cc1cccc(C(=O)NCCc2nc3ccccc3n2CCOc2ccccc2)c1 |
| – | inactive | COc1ccccc1NC(=O)CSc1nnc2c(n1)[nH]c1ccc(C)cc12 |
| – | > 39.5 µM (inactive) | COCCc1nc2ccc(C(=O)NCCc3nc4ccc(OC)cc4[nH]3)cc2o1 |
| – | > 119 µM (inactive) | Cc1cccc2[nH]c(CCN(C)C(=O)c3cccc(C4CCNC4)c3)nc12 (stereo unspecified) |
| – | > 13.2 µM (inactive) | COc1cccc(NC(=O)C2CC(=O)n3c(nc4ccccc43)N2)c1 (stereo unspecified) |
| 5.27 | – | O=C(NCCc1nc2ccccc2[nH]1)c1ccc(Cl)cc1 |
| 5.87 | – | O=C(NCCc1nc2ccccc2[nH]1)c1ccc(Cl)cc1Cl |
| – | > 39.5 µM (inactive) | CC(=O)N(CCc1ccccc1)C1CC(=O)N(c2ccc(Cl)cc2)C1=O (stereo unspecified) |
| – | > 119 µM (inactive) | O=C(NCCc1nc2ccccc2[nH]1)c1c(F)cccc1F |
| 6.49 | – | CNC(=S)N(CCc1ccccc1)C1CC(=O)N(c2ccc(Br)cc2)C1=O (stereo unspecified) |
| – | > 39.5 µM (inactive) | Cc1cccc(NC(=O)C2CC(=O)n3c(nc4ccccc43)N2)c1 (stereo unspecified) |
| – | > 39.5 µM (inactive) | CCc1ccc2[nH]c3nc(SCC(=O)NCc4cccc(OC)c4)nnc3c2c1 |
| – | > 119 µM (inactive) | CCN(CCc1nc2ccc(C)cc2[nH]1)C(=O)c1ccc2ncccc2c1 |
| – | > 119 µM (inactive) | COc1ccc(NC(=O)C2CC(=O)n3c(nc4ccccc43)N2)cc1 (stereo unspecified) |
| – | > 119 µM (inactive) | O=C1CC(NCCc2ccccc2)C(=O)N1c1ccc(Br)cc1 (stereo unspecified) |
| – | > 119 µM (inactive) | CC(C)c1nc2ccc(C(=O)N(C)CCc3nc4ccc(F)cc4[nH]3)cc2o1 |
| – | > 39.5 µM (inactive) | CC(=O)N(CCc1ccccc1)C1CC(=O)N(c2ccc(Br)cc2)C1=O (stereo unspecified) |
| – | > 13.2 µM (inactive) | Cc1ccc(C(=O)NCCc2nc3ccccc3[nH]2)cc1C |
| 6.05 | – | O=C(NCCc1nc2ccccc2[nH]1)c1ccc(Cl)c(Cl)c1 |
| 6.18 | – | O=C(CSc1nnc2c(n1)[nH]c1ccc(Br)cc12)NCc1ccccc1 |
| – | > 39.5 µM (inactive) | CCC(=O)c1cn(CC(=O)Nc2cccc(C(F)(F)F)c2)c2ccccc12 |
| 6.17 | – | COc1ccc(CCN(C(=S)Nc2ccccc2)C2CC(=O)N(c3ccc(Cl)cc3)C2=O)cc1 (stereo unspecified) |
| – | > 39.5 µM (inactive) | Cc1cccc2[nH]c(C3CCCN(C(=O)c4cccc5cccnc45)C3)nc12 (stereo unspecified) |

Continued, compound first:

| SMILES | pIC50 | IC50 |
| --- | --- | --- |
| CCN(CC)C(=O)C(=O)c1cn(CC(=O)N2CCCc3ccccc32)c2ccccc12 | – | > 119 µM (inactive) |
| Cc1ccc2[nH]c3nc(SCC(=O)Nc4ccc(C(F)(F)F)cc4)nnc3c2c1 | – | > 119 µM (inactive) |
| O=C(Cn1cc(C(=O)c2ccccc2)c2ccccc21)Nc1cccc(C(F)(F)F)c1 | – | inactive |
| COc1ccc(NC(=O)CSc2nnc3c4cc(C)ccc4n(C)c3n2)cc1 | – | > 119 µM (inactive) |
| CCN(C(=O)Cn1cc(C(=O)C(=O)N2CCOCC2)c2ccccc21)c1ccccc1 | – | > 119 µM (inactive) |
| O=C(CSC1CC(=O)N(c2cccc(Cl)c2)C1=O)Nc1ccc(Br)cc1 (stereo unspecified) | – | inactive |
| O=C(Cn1cc(C(=O)c2ccco2)c2ccccc21)Nc1cccc(C(F)(F)F)c1 | 5.53 | – |
| CCN(CC)C(=O)C(=O)c1cn(CC(=O)N(CC)c2ccccc2)c2ccccc12 | – | > 39.5 µM (inactive) |
| O=C(Cn1cc(C(=O)C(=O)N2CCOCC2)c2ccccc21)NCC1CCCO1 (stereo unspecified) | – | > 119 µM (inactive) |
| CCN(CC)C(=O)C(=O)c1cn(CC(=O)Nc2ccccc2OC)c2ccccc12 | – | > 119 µM (inactive) |
| O=C(Cn1cc(C(=O)C(=O)N2CCCC2)c2ccccc21)Nc1ccccc1 | – | > 119 µM (inactive) |
| COc1ccccc1NC(=O)Cn1cc(C(=O)C(=O)N2CCOCC2)c2ccccc21 | – | > 119 µM (inactive) |
| O=C(Cn1cc(C(=O)COc2ccccc2)c2ccccc21)Nc1cccc(C(F)(F)F)c1 | – | > 39.5 µM (inactive) |
| O=C(C(=O)N1CCOCC1)c1cn(CC(=O)N2CCCc3ccccc32)c2ccccc12 | – | > 13.2 µM (inactive) |
| COc1ccc(CCN(C(=O)c2cccc(F)c2)C2CC(=O)N(c3ccc(Br)cc3)C2=O)cc1 (stereo unspecified) | – | > 119 µM (inactive) |
| O=C(Cn1cc(C(=O)C2CC2)c2ccccc21)Nc1cccc(C(F)(F)F)c1 | – | > 39.5 µM (inactive) |
| CCc1ccc2c(c1)c1nnc(SCC(=O)Nc3ccc4c(c3)OCO4)nc1n2C | – | > 119 µM (inactive) |
| CC1Cc2ccccc2N1C(=O)Cn1cc(C(=O)C(=O)N2CCOCC2)c2ccccc21 (stereo unspecified) | – | > 119 µM (inactive) |
| CCN(CC)C(=O)C(=O)c1cn(CC(=O)Nc2cccc(C(F)(F)F)c2)c2ccccc12 | 6.78 | – |
| CCN(CC)C(=O)C(=O)c1cn(CC(=O)Nc2cccc(OC)c2)c2ccccc12 | 5.46 | – |
| Cc1ccc(CNC(=O)CSc2nnc3c(n2)[nH]c2ccc(C)cc23)cc1 | – | inactive |
| O=C(Cn1cc(C(=O)C(=O)N2CCOCC2)c2ccccc21)NCc1ccccc1 | – | > 119 µM (inactive) |
